According to patent publication US20110081674A1, “CONTINUOUS-FLOW DEFORMABILITY-BASED CELL SEPARATION” (priority 2009, published 2011):

Test system: red blood cells (RBCs)
Experiment: Deformability and mobility of glutaraldehyde-treated red blood cells at slits of the microfluidic device
Type: cell-based
Description: FIG. 4 illustrates embodiments of: A. red blood cells (RBCs) aligned at the entrance of a 1 μm slit under a pressure difference of 40 kPa. […] Because the surface-area to volume ratio of RBCs is constrained, they are unable to pass through slits less than a certain gap width apart. B. RBCs treated with 0.1% Glutaraldehyde (GA) maintain their biconcave structure at the entrance of 2 μm slits under a pressure difference of 40 kPa. Glutaraldehyde cross-links proteins in the membrane and in the cytosol of RBCs, making them stiffer. […] C. Mobility vs. GA concentration. […] The slit gap is the vertical gap that defines the spacing between the two substrates at the trenches area. These are the shallow regions of a unit of the sorter.
With reference to FIG. 4A, a solution of PBS 1× and 0.2% w/v Pluronic F108 (a surfactant) and Bovine Serum Albumin 1% w/v (another surfactant) was prepared. The device was filled with this solution by applying pressure to one of the reservoirs. 1 μL of whole blood was mixed with 100 μL of this solution. The mixture was injected into the entrance reservoir of the device shown by using a syringe. The pressure difference between the two reservoirs was 40 kPa and was generated by using a pressure regulator. The cell concentration was approximately 0.5% hematocrit. Mobility was measured by tracking individual cells over a distance of 100 μm.

`O=CCCCC=O` [Glutaraldehyde] was tested, and the “Ability of treated RBCs to deform and pass through slits” value (RBCs treated with 0.1% Glutaraldehyde, 2 μm slits, pressure difference 40 kPa) was “unable to pass through 2 μm slits” and the “Mobility vs. GA concentration” value (higher GA concentration, given ambient fluid velocity) was “decreased mobility”.
